Laboratory results from article PMC7824903, “Dual Carbonic Anhydrase IX/XII Inhibitors and Carbon Monoxide Releasing Molecules Modulate LPS-Mediated Inflammation in Mouse Macrophages” (Antioxidants, 2021).

How the values were obtained:
hCA IX [1] = molecular target: T1, hCA IX (Homo sapiens, UniProt Q16790); assay: stopped-flow CO2 hydrase assay; format: biochemical
T1 construct: gene CA9; recombinant, obtained in-house

hCA XII [2] = molecular target: T2, hCA XII (Homo sapiens, UniProt O43570); assay: stopped-flow CO2 hydrase assay; format: biochemical; conditions: CO2 […], […] Hepes pH […] Na2SO4, […] min preincubation at room temperature
T2 construct: gene CA12; recombinant, obtained in-house

hCA XII [3] = molecular target: T2, hCA XII; assay: biochemical; parameters: Stopped-flow CO2 hydrase assay, phenol red absorbance at 557 nm, KI by Cheng-Prusoff
Protocol: (§1) An Applied Photophysics stopped-flow instrument has been used for assaying the CA catalysed CO2 hydration activity. Phenol red (at a concentration of 0.2 mM) has been used as indicator, working at the absorbance maximum of 557 nm, with 20 mM Hepes (pH 7.5) as buffer, and 20 mM Na2SO4 (for maintaining constant the ionic strength), following the initial rates of the CA-catalyzed CO2 hydration reaction for a period of 10–100 s. The CO2 concentrations ranged from 1.7 to 17 mM for the determination of the kinetic parameters and inhibition constants. For each inhibitor at least six traces of the initial 5–10% of the reaction have been used for determining the initial velocity. The uncatalyzed rates were determined in the same manner and subtracted from the total observed rates. Stock solutions of inhibitor (0.1 mM) were prepared in distilled-deionized water and dilutions up to 0.01 nM were done thereafter with the assay buffer. Inhibitor and enzyme solutions were preincubated together for 15 min at room temperature prior to assay, to allow for the formation of the E-I complex. The inhibition constants were obtained by non-linear least-squares methods using PRISM 3 and the Cheng–Prusoff equation, as reported earlier, and represent the mean from at least three different determinations. All CA isoforms were recombinant ones obtained in-house as reported earlier. […] DCH/CO-RM derivatives 1–10 were therefore investigated as inhibitors of the hCAs I, II, IX, and XII by means of the Stopped-Flow CO2 hydrase assay.

hCA IX [4] = molecular target: T1, hCA IX; assay: biochemical; parameters: Stopped-flow CO2 hydrase assay, phenol red absorbance at 557 nm, KI by Cheng-Prusoff
Protocol: as §1

hCA IX [5] = molecular target: T1, hCA IX; assay: stopped-flow CO2 hydrase assay; format: biochemical; conditions: CO2 […], […] Hepes pH […] Na2SO4, […] min preincubation at room temperature
hCA I = molecular target: T3, hCA I (Homo sapiens, UniProt P00915); assay: biochemical; parameters: Stopped-flow CO2 hydrase assay, phenol red absorbance at 557 nm, KI by Cheng-Prusoff
T3 construct: gene CA1; recombinant, obtained in-house
Protocol: as §1

hCA II = molecular target: T4, hCA II (Homo sapiens, UniProt P00918); assay: biochemical; parameters: Stopped-flow CO2 hydrase assay, phenol red absorbance at 557 nm, KI by Cheng-Prusoff
T4 construct: gene CA2; recombinant, obtained in-house
Protocol: as §1

hCA XII [6] = molecular target: T2, hCA XII; assay: stopped-flow CO2 hydrase assay; format: biochemical

T2 sequence (O43570 30-289 limits assumed): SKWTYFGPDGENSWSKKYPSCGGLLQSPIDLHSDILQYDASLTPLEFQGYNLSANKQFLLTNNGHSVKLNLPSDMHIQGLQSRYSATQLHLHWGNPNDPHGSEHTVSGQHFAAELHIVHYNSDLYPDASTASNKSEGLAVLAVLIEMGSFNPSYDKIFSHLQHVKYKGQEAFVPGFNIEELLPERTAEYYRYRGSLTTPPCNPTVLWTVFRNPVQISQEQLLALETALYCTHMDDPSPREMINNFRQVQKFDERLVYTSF
T3 sequence (P00915 2-261): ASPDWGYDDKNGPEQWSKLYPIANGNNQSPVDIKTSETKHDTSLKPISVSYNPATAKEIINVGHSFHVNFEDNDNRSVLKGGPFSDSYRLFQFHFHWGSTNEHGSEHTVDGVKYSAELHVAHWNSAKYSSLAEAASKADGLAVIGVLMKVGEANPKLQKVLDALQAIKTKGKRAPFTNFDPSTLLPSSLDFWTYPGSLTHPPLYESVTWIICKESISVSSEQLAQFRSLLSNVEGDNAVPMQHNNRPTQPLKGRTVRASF

Ki (hCA XII [3]) [nM] | Ki (hCA IX [4]) [nM] | Ki (hCA I) [nM] | Ki (hCA II) [nM] | Structure (SMILES) | further results
 |  |  |  | C#CCOC1=NS(=O)(=O)OC(C)=C1 [a] | Ki (hCA IX [1]; CO2 […], […] Hepes pH […] Na2SO4, […] min preincubation at room temperature): 0.252 µM
378 | 358 |  |  | C#CCN1C(=O)C=C(C)OS1(=O)=O [b, 6-methyl-3-(prop-2-yn-1-yl)-1,2,3-oxathiazin-4(3H)-one 2,2-dioxide] | KI (hCA XII [2]): Compounds a and b showed better inhibitory activity against isoform XII; KI (hCA IX [5]): compound b exhibited a loss of inhibitory activity after the CO releasing group linkage
4920 |  | > 100000 | > 100000 | C#CCOc1cccc2cc(C(=O)c3ccccc3)c(=O)oc12 [f, 3-benzoyl-8-(prop-2-yn-1-yloxy)-2H-chromen-2-one] | KI (hCA XII [2]): maintained unchanged their inhibitory activity against hCA XII; Ki (hCA IX [1]): 0.695 µM
 |  |  |  | C#CCOc1ccc2oc(=O)c(C(=O)c3ccccc3)cc2c1 [g, 3-benzoyl-6-(prop-2-yn-1-yloxy)-2H-chromen-2-one] | Ki (hCA XII [6]): 0.353 µM; Ki (hCA IX [1]): 0.315 µM
 |  | > 100000 | > 100000 | C#CCOc1cccc2cc(C(=O)OCC)c(=O)oc12 [h, ethyl 2-oxo-8-(prop-2-yn-1-yloxy)-2H-chromene-3-carboxylate] | 
> 100000 | > 100000 | > 100000 | > 100000 | C#CCOc1ccc(C2=NN(C(C)=O)C(c3ccccc3OC)C2)cc1 (stereo not shown) [i] | 
> 100000 | > 100000 | > 100000 | > 100000 | C#CCOc1ccc(-c2nc3ccccc3n2-c2ccccc2)cc1 [l] | 
